The record followed here is patent US20190336489A1, “NON PEPTIDE HETEROBIVALENT MOLECULES FOR TREATING INFLAMMATORY DISEASES” (GLAXOSMITHKLINE INTELLECTUAL PROPERTY DEVELOPMENT LIMITED, priority 2017, published 2019).

Like-named read-outs stand apart in the source and are kept apart here. Marks after values point to notes of the source that are not given here.

Common to all, as to type: cell-based
For one test, the target named is T1, CCR3 (Homo sapiens, UniProt P51677).
T1 construct: expressed in transfected cells; host or cells: CHOK1
T1 sequence (P51677 1-355): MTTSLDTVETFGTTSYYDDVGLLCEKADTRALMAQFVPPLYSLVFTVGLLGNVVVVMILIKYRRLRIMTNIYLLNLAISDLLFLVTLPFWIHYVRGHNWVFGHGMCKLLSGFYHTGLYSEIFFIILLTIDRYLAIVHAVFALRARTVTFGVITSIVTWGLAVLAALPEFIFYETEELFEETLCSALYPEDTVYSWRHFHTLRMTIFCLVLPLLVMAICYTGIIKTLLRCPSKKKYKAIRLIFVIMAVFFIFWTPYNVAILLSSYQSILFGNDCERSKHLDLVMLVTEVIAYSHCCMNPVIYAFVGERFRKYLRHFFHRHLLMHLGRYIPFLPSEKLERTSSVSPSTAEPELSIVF
Nature of the test: Antibody Dependent Cellular Cytotoxicity (ADCC) reporter assay, CCR3 target cells. The conditions noted are these: for EC50 / ADCC efficacy: CHOK1 cells overexpressing CCR3; for EC50: Jurkat FcgRIIIa NFAT-luciferase reporter cells, EC50 class, read-out: ADCC potency; for ADCC efficacy: maximum signal:background (S/B). The text has this: (§1) The compounds described herein have been characterized in an ADCC reporter assay (see Section 1.2 ADCC reporter for protocol). […] Furthermore, the assay also confirms that this formed complex can engage and activate the Fc receptors on immune cells. Lastly, the assay provides both potency (EC50) and efficacy (signal to background ratio) for each compound in a dose dependant manner.
(§2) This assay has four components • 1) Heterobivalent Compound consisting of a targeting ligand and a hapten connected by a linker (ranging from 10 uM-1 pM) • 2) A hapten antibody with functional Fc domain (typical concentrations are 0.01 ug/mL-200 ug/mL) • 3) Target cells—CHOK1 cells engineered to overexpress either CCR1, CCR2, or CCR3, or CEMNKR cells engineered to overexpress CCR5 (typically 1000-20,000 cells per well) • 4) Reporter cells—Jurkat cells engineered to express FcgRIIIa (ADCC reporter assay) and with a reporter gene (luciferase) under the control of the NFAT promoter (typically 3000-75,000 cells per well)
(§3) Reagents are combined in final volume of 20 uL in 384-well tissue culture treated plated.
(§4) All components are incubated together for ˜12-18 hours. Add BioGlo Detection reagent (from Promega) to lyse the cells and provide substrate for the luciferase reporter protein. Signal is measured on a microplate reader capable of measuring luminescence. Signal:Background is calculated by dividing the signal of a test well by the signal obtained when no compound is included in the assay. EC50 calculations were done using Graphpad Prism Software, specifically a nonlinear regression curve fit (Y=Bottom+(Top−Bottom)/(1+10^((Log EC50−X)*HillSlope)))
In general terms: A reporter such as luciferase makes a cellular process visible.

A further test deals with T2, CCR2 (Homo sapiens, UniProt P41597).
T2 construct: expressed in transfected cells; host or cells: CHOK1
T2 sequence (P41597 whole entry, species assumed): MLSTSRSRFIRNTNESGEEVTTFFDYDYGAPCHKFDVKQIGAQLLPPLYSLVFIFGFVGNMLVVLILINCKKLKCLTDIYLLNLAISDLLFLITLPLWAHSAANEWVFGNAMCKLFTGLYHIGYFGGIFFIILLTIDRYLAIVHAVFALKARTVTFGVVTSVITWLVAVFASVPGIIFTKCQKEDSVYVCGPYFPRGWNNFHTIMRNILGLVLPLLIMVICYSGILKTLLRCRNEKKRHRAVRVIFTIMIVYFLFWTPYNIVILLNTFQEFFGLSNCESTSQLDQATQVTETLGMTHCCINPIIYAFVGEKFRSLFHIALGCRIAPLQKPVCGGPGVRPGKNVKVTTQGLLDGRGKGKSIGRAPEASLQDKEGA
Nature of the test: Antibody Dependent Cellular Cytotoxicity (ADCC) reporter assay, CCR2 target cells. The settings on record: for ADCC efficacy: maximum signal:background (S/B).
Text: as §1, §2, §3, §4

Another test has as its target T3, CCR1 (Homo sapiens, UniProt P32246).
T3 construct: expressed in transfected cells; host or cells: CHOK1
T3 sequence (P32246 1-355): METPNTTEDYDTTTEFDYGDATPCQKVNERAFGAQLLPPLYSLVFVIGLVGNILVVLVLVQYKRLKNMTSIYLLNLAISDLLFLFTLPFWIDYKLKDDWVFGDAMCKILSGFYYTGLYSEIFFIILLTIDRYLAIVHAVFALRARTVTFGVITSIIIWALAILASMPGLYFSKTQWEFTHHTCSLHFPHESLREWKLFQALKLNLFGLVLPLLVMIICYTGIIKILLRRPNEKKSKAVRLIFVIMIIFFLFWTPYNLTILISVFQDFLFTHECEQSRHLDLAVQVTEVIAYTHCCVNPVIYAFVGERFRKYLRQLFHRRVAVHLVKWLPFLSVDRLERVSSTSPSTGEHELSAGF
Kind of test: Antibody Dependent Cellular Cytotoxicity (ADCC) reporter assay, CCR1 target cells. The conditions noted are these: CHOK1 cells overexpressing CCR1; for EC50: Jurkat FcgRIIIa NFAT-luciferase reporter cells, EC50 class, read-out: ADCC potency; for ADCC efficacy: maximum signal:background (S/B).
Text: as §1, §2, §3, §4

The mark [1] stands for this setting: CHOK1 cells overexpressing CCR2, Jurkat FcgRIIIa NFAT-luciferase reporter cells, EC50 class, read-out: ADCC potency.
The mark [2] stands for this setting: CHOK1 cells overexpressing CCR2.

As to `CC(C)(C)N1CCNC(C(=O)N2CCN(C(=O)Nc3nc(C(F)(F)F)c(Cl)s3)C(CCOC(=O)NCCOCCOCCOCCOCCOCCOCCOCCOCCOCCNc3ccc([N+](=O)[O-])cc3[N+](=O)[O-])C2)C1` (mixture of isomers) [Compound 18, 2-(4-(4-(Tert-butyl)piperazine-2-carbonyl)-1-((5-chloro-4-(trifluoromethyl)thiazol-2-yl)carbamoyl)piperazin-2-yl)ethyl (29-((2,4-dinitrophenyl)amino)-3,6,9,12,15,18,21,24,27-nonaoxanonacosyl)carbamate], at CCR3 (ADCC reporter assay), the efficacy signal result is reported as “robust” and the potency entry was “nanomolar range”. Moreover, on CCR2 (setting [1]), the EC50 was < 1 nM. The ADCC efficacy result at CCR2 (setting [2]) was “+++^e (Maximum Signal:Background > 10 = +++)”.

For `CC(C)[C@@H](NC(=O)c1cccc(C(=O)NCCOCCOCCOCCOCCOCCOCCOCCOCCOCCOCCOCCNC(=O)CCCC[C@@H]2SC[C@@H]3NC(=O)N[C@@H]32)c1)C(=O)N1CCC(c2ccc(Cl)cc2)CC1` [Compound 1, N1-((R)-1-(4-(4-chlorophenyl)piperidin-1-yl)-3-methyl-1-oxobutan-2-yl)-N3-(37-oxo-41-((3aS,4S,6aR)-2-oxohexahydro-1H-thieno[3,4-d]imidazol-4-yl)-3,6,9,12,15,18,21,24,27,30,33-undecaoxa-36-azahentetracontyl)isophthalamide], at CCR1, the EC50 is 10 to 100 nM and the ADCC efficacy entry is “+++^d (maximum signal:background > 11 = +++)”.

As to `CC(C)[C@@H](NC(=O)c1cccc(C(=O)NCCOCCOCCOCCOCCNC(=O)CCCC[C@@H]2SC[C@@H]3NC(=O)N[C@@H]32)c1)C(=O)N1CCC(c2ccc(Cl)cc2)CC1` [Compound 2, N1-((R)-1-(4-(4-chlorophenyl)piperidin-1-yl)-3-methyl-1-oxobutan-2-yl)-N3-(16-oxo-20-((3aS,4S,6aR)-2-oxohexahydro-1H-thieno[3,4-d]imidazol-4-yl)-3,6,9,12-tetraoxa-15-azaicosyl)isophthalamide], at CCR1, the EC50 is 100 to 1000 nM and the ADCC efficacy entry is listed as “++^d (between 9-11 = ++)”.

For `CC(C)[C@@H](NC(=O)c1cccc(C(=O)NCCOCCOCCOCCOCCOCCOCCOCCNC(=O)CCCC[C@@H]2SC[C@@H]3NC(=O)N[C@@H]32)c1)C(=O)N1CCC(c2ccc(Cl)cc2)CC1` [Compound 3, N1-((R)-1-(4-(4-chlorophenyl)piperidin-1-yl)-3-methyl-1-oxobutan-2-yl)-N3-(25-oxo-29-((3aS,4S,6aR)-2-oxohexahydro-1H-thieno[3,4-d]imidazol-4-yl)-3,6,9,12,15,18,21-heptaoxa-24-azanonacosyl)isophthalamide], on CCR1, the EC50 lay within 10 to 100 nM and the ADCC efficacy result was “++^d (between 9-11 = ++)”.

With `CC(C)[C@@H](NC(=O)c1cccc(C(=O)NCCOCCOCCOCCOCCC(=O)NCCOCCOCCOCCOCCOCCOCCOCCOCCOCCOCCOCCNC(=O)CCCC[C@@H]2SC[C@@H]3NC(=O)N[C@@H]32)c1)C(=O)N1CCC(c2ccc(Cl)cc2)CC1` [Compound 4, N1-((R)-1-(4-(4-chlorophenyl)piperidin-1-yl)-3-methyl-1-oxobutan-2-yl)-N3-(15,53-dioxo-57-((3aS,4S,6aR)-2-oxohexahydro-1H-thieno[3,4-d]imidazol-4-yl)-3,6,9,12,19,22,25,28,31,34, 37,40,43,46,49-pentadecaoxa-16,52-diazaheptapentacontyl)isophthalamide], at CCR1, the EC50 is 100 to 1000 nM and the ADCC efficacy entry is given as “++^d (between 9-11 = ++)”.

Turning to `Cc1ccc2c(c1)NC[C@]21CCN(C[C@@H](O)C2CCN(C(=O)c3cc4c(OCCOCCOCCOCCNC(=O)CCC(=O)NCCOCCOCCOCCNc5ccc([N+](=O)[O-])cc5[N+](=O)[O-])cccc4[nH]3)CC2)C[C@H]1C` [Compound 14, N1-(2-(2-(2-(2-((2-(4-((S)-2-((3S,3′S)-3′,6-dimethylspiro[indoline-3,4′-piperidin]-1′-yl)-1-hydroxyethyl)piperidine-1-carbonyl)-1H-indol-4-yl)oxy)ethoxy)ethoxy)ethoxy)ethyl)-N4-(2-(2-(2-(2-((2,4-dinitrophenyl)amino)ethoxy)ethoxy)ethoxy)ethyl)succinamide], at CCR2, the EC50 fell in the range of 100 to 1000 nM. Besides, the ADCC efficacy result at CCR2 (setting [2]) is “++^e (>5 = ++)”.

With `Cc1ccc2c(c1)NC[C@]21CCN(C[C@@H](O)C2CCN(C(=O)c3cc4ccc(Oc5ccc(C(=O)N6CCN(CCCNc7ccc([N+](=O)[O-])cc7[N+](=O)[O-])CC6)cc5)cc4[nH]3)CC2)C[C@H]1C` [Compound 15, (4-((S)-2-((3S,3′S)-3′,6-Dimethylspiro[indoline-3,4′-piperidin]-1′-yl)-1-hydroxyethyl)piperidin-1-yl)(6-(4-(4-(3-((2,4-dinitrophenyl)amino)propyl)piperazine-1-carbonyl)phenoxy)-1H-indol-2-yl)methanone], the EC50 at CCR2 (setting [1]) was 1 to 10 nM. Also, the ADCC efficacy result on CCR2 (setting [2]) is “+++^e (Maximum Signal:Background > 10 = +++)”.

With `O=C(NCc1ccc(C(=O)NCCCOCCOCCOCCCNc2ccc([N+](=O)[O-])cc2[N+](=O)[O-])cc1)NC[C@@H]1CN(Cc2ccc(Cl)c(Cl)c2)CCO1` [Compound 21, (R)-4-((3-((4-(3,4-dichlorobenzyl)morpholin-2-yl)methyl)ureido)methyl)-N-(3-(2-(2-(3-((2,4-dinitrophenyl)amino)propoxy)ethoxy)ethoxy)propyl)benzamide], at CCR3, the EC50 was < 1 nM and the ADCC efficacy result is on record as “+++^f (Maximum S:B > 20 = +++)”.

Regarding `O=C(NCc1ccc(C(=O)NCCCOCCOCCOCCCNC(=S)Nc2ccc(-c3c4ccc(=O)cc-4oc4cc(O)ccc34)c(C(=O)O)c2)cc1)NC[C@H]1CN(Cc2ccc(Cl)c(Cl)c2)CCO1` [Compound 22, (S)-5-(3-(1-(4-((3-((4-(3,4-Dichlorobenzyl)morpholin-2-yl)methyl)ureido)methyl)phenyl)-1-oxo-6,9,12-trioxa-2-azapentadecan-15-yl)thioureido)-2-(6-hydroxy-3-oxo-3H-xanthen-9-yl)benzoic acid], on CCR3, the EC50 lay in the range of 1 to 10 nM and the ADCC efficacy result is “+++^f (Maximum S:B > 20 = +++)”.

Turning to `O=C(CCC(=O)N[C@H]1CC[C@H](NC(=O)c2ccc(CNC(=O)NC[C@H]3CN(Cc4ccc(Cl)c(Cl)c4)CCO3)cc2)CC1)NCCCOCCOCCOCCCNc1ccc([N+](=O)[O-])cc1[N+](=O)[O-]` [Compound 23, N1-((Trans)-4-(4-((3-(((S)-4-(3,4-Dichlorobenzyl)morpholin-2-yl)methyl)ureido)methyl)benzamido)cyclohexyl)-N4-(3-(2-(2-(3-((2,4-dinitrophenyl)amino)propoxy)ethoxy)ethoxy)propyl)succinamide], on CCR3, the EC50 is < 1 nM and the ADCC efficacy result is listed as “+++^f (Maximum S:B > 20 = +++)”.

On to `CCCCN1C(=O)[C@@H]([C@H](O)C2CCCCC2)NC(=O)C12CCN(Cc1ccc(Oc3ccc(C(=O)NCCOCCOCCOCCOCCOCCOCCOCCOCCOCCNC(=S)Nc4ccc5c(c4)C(=O)OC54c5ccc(O)cc5Oc5cc(O)ccc54)cc3)cc1)CC2` [Compound 25, 4-(4-(((R)-1-butyl-3-((R)-cyclohexyl(hydroxy)methyl)-2,5-dioxo-1,4,9-triazaspiro[5.5]undecan-9-yl)methyl)phenoxy)-N-(1-((3′,6′-dihydroxy-3-oxo-3H-spiro[isobenzofuran-1,9′-xanthen]-5-yl)amino)-1-thioxo-5,8,11,14,17,20,23,26,29-nonaoxa-2-azahentriacontan-31-yl)benzamide], for which, at CCR3, the EC50 was in the range of 1 to 10 nM and the ADCC efficacy entry was “+++^f (Maximum S:B > 20 = +++)”.
